Source: patent publication US20210315971A1, “COMPOSITIONS ACTING AS PRO(RENIN) RECEPTOR ANTAGONISTS FOR THE TREATMENT OF NON-ALCOHOLIC FATTY LIVER DISEASE” (Board of Regents of the Nevada System of Higher Education …, priority 2018, published 2021)

Key:
Type in all cases: in vivo
[1] = system: peroxisome proliferator-activated receptor gamma (PPARγ); experiment: Liver PPARγ in high fat diet mice; settings: subcutaneous administration, high fat diet mice (FIG. 7)
Text: FIG. 7 illustrates subcutaneous administration of PRR antagonist, PRO20, attenuates peroxisome proliferator-activated receptor gamma (PPARγ). […] PRO20 treatment prevents the upregulating of PPARγ in the liver supporting a mechanism for the beneficial role of PRO20 in preventing fatty liver development.
Non-alcoholic fatty liver steatohepatitis (NASH) represents a diverse array of liver damage linked to obesity, metabolic syndrome, and diabetes. The mechanisms and the treatment for NASH remains lacking. The inventors hypothesized that PRR antagonism using PRO20 prevents NASH development. FIG. 6 illustrates subcutaneous administration of PRR antagonist, PRO20, attenuates high fat diet induced-liver steatosis in mice. Wild-type C57Bl/6J mice were treated with either with either HFD (60% calories from fat) or normal fat chow (NFD, 10% calories from fat) with matching calories for 6 weeks. Two week following diet modification, HFD mice were implanted with subcutaneous osmotic pump containing either PRO20 (27 ug/kg/d) or saline for 4 weeks. Liver tissues were processed for Oil Red 0 staining for lipid accumulation and quantified using Image)/FIJI software. Data were presented % of ORO staining to the total area. N=4 mice/group. *p<0.01 vs. NFD; #P<0.05 vs. HFD Saline; One-way ANOVA. […]

Wild-type C57Bl/6J mice = experiment: High fat diet induced liver steatosis in mice, Oil Red O staining of liver; settings: HFD 6 weeks; PRO20 27 ug/kg/d by subcutaneous osmotic pump for 4 weeks; HFD saline 17.57±3.23%, NFD 3.51±0.86%; N=4 mice/group
Experimental: Non-alcoholic fatty liver steatohepatitis (NASH) represents a diverse array of liver damage linked to obesity, metabolic syndrome, and diabetes. The mechanisms and the treatment for NASH remains lacking. The inventors hypothesized that PRR antagonism using PRO20 prevents NASH development. FIG. 6 illustrates subcutaneous administration of PRR antagonist, PRO20, attenuates high fat diet induced-liver steatosis in mice. Wild-type C57Bl/6J mice were treated with either with either HFD (60% calories from fat) or normal fat chow (NFD, 10% calories from fat) with matching calories for 6 weeks. Two week following diet modification, HFD mice were implanted with subcutaneous osmotic pump containing either PRO20 (27 ug/kg/d) or saline for 4 weeks. Liver tissues were processed for Oil Red 0 staining for lipid accumulation and quantified using Image)/FIJI software. Data were presented % of ORO staining to the total area. N=4 mice/group. *p<0.01 vs. NFD; #P<0.05 vs. HFD Saline; One-way ANOVA. 6 weeks of HFD (17.57±3.23%) induced a significant elevation on liver ORO staining compared with the liver from mice fed with NFD (3.51±0.86%, p=0.005). […] FIG. 7 illustrates subcutaneous administration of PRR antagonist, PRO20, attenuates peroxisome proliferator-activated receptor gamma (PPARγ).

[2] = system: liver renin-angiotensin system; experiment: Liver renin-angiotensin system activation induced by high fat diet; settings: subcutaneous administration, high fat diet mice (FIG. 8)

Sequence: LPTDTTTFKRIFLKRMPSI (Synthetic (pro)renin receptor agonist peptide) [PRO20]
- Effect on liver PPARγ [1]: attenuates
- % of ORO staining to the total area (liver lipid accumulation) (Wild-type C57Bl/6J mice): 7.34±1.96%
- Effect on liver renin-angiotensin system activation induced by high fat diet [2]: prevents activation
